In the supplement of paper PMC6045584:
± gives the standard deviation of the averaged measurements.

Legend:
[1] = compound: CCn1c(C(=O)N(C2CC2)C2CC2)cc2c3c(ncn3C)c(Nc3cc(C)n(C)n3)nc21; experiment: surviving fraction relative to DMSO-only wells; higher = less growth inhibition; conditions: exposure time: 5 days
Procedure, shortened: (§1)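 Log-phase tumour cell lines were seeded at 250–500 cells per well in 384-well plates. After 24 hours they were exposed continuously for five days to inhibitors at 0.5, 1, 5, 10, 50, 100, 500 and 1000 nM. Viability was read by CellTiter-Glo luminescence after 10 minutes at room temperature, and surviving fraction is luminescence normalised to the median of DMSO-only wells. Each line was screened three times and kept only if replicate Pearson r >0.7 and median Z' >0.3.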

[2] = compound: O=C(c1cc(Cc2n[nH]c(=O)c3ccccc23)ccc1F)N1CCN(C(=O)C2CC2)CC1 [OLAPARIB]; experiment: as above; conditions: exposure time: 5 days
Procedure, shortened: as §1

Test System	surviving fraction ([1]; 0.5 nM)	surviving fraction ([1]; 1 nM)	surviving fraction ([1]; 5 nM)	surviving fraction ([1]; 10 nM)	surviving fraction ([1]; 50 nM)	surviving fraction ([1]; 100 nM)	surviving fraction ([1]; 500 nM)	surviving fraction ([1]; 1000 nM)	surviving fraction ([2]; 0.5 nM)	surviving fraction ([2]; 1 nM)	surviving fraction ([2]; 5 nM)	surviving fraction ([2]; 10 nM)	surviving fraction ([2]; 50 nM)	surviving fraction ([2]; 100 nM)	surviving fraction ([2]; 500 nM)	surviving fraction ([2]; 1000 nM)
G292 BONE	0.983 ± 0.044	0.978 ± 0.019	1.01 ± 0.056	1.01 ± 0.038	1.03 ± 0.04	1.028 ± 0.0063	0.952 ± 0.021	0.97 ± 0.036	1.01 ± 0.014	1.01 ± 0.037	1.01 ± 0.016	1.02 ± 0.017	0.977 ± 0.022	0.971 ± 0.046	0.872 ± 0.037	0.831 ± 0.02
HCC38 BREAST	1.26 ± 0.17	1.2 ± 0.084	1.28 ± 0.02	1.14 ± 0.063	1.19 ± 0.11	1.23 ± 0.099	1.22 ± 0.18	1.24 ± 0.17	1.13 ± 0.12	1.04 ± 0.039	1.05 ± 0.26	1.05 ± 0.22	0.656 ± 0.17	0.6 ± 0.094	0.441 ± 0.098	0.432 ± 0.074
HCC70 BREAST	0.976 ± 0.033	0.984 ± 0.15	1.03 ± 0.093	0.97 ± 0.041	1.055 ± 0.0098	1.06 ± 0.055	0.939 ± 0.026	0.946 ± 0.068	1.15 ± 0.043	1.08 ± 0.038	1.13 ± 0.082	1.15 ± 0.049	1.1 ± 0.16	1.05 ± 0.064	0.983 ± 0.069	0.928 ± 0.12
HMLE3 BREAST	0.951 ± 0.038	0.942 ± 0.037	0.977 ± 0.09	0.949 ± 0.072	0.953 ± 0.088	0.956 ± 0.061	0.914 ± 0.036	0.906 ± 0.056	1.01 ± 0.015	0.976 ± 0.039	1.09 ± 0.097	1.06 ± 0.057	0.972 ± 0.042	0.962 ± 0.12	0.911 ± 0.07	0.835 ± 0.072
HMT3552 BREAST	0.943	0.942	1.08	1.03	1.23	1.18	1.18	1.27	0.96	0.909	0.92	0.865	1.07	0.858	0.913	0.742
HS57T BREAST	0.959 ± 0.063	0.892 ± 0.0062	1 ± 0.045	0.967 ± 0.037	1.08 ± 0.055	1.01 ± 0.017	0.934 ± 0.049	0.917 ± 0.055	1.09 ± 0.06	1.11 ± 0.036	1.09 ± 0.05	1.13 ± 0.05	1.1 ± 0.022	1.04 ± 0.053	0.999 ± 0.024	0.914 ± 0.067
HS578T BREAST	1.13 ± 0.053	0.828 ± 0.05	1 ± 0.12	1.01 ± 0.15	0.821 ± 0.06	1.09 ± 0.15	0.999 ± 0.049	0.989 ± 0.073	0.886 ± 0.076	0.911 ± 0.043	0.937 ± 0.14	0.853 ± 0.12	0.837 ± 0.079	0.87 ± 0.061	0.713 ± 0.093	0.705 ± 0.066
